Measured values reported in ChEMBL document CHEMBL4007398, “Inhibitors of Influenza Virus Polymerase Acidic (PA) Endonuclease: Contemporary Developments and Perspectives” (J Med Chem, 2017).
pEC50, pIC50, pKd: −log10 of the molar value.

Tests used:
[1] = Inhibition of recombinant influenza A virus A/X-31 N-terminal 6His tagged-PA endonuclease (1 to 217 residues) expressed in Escherichia coli BL21-CodonPlus cells after 2 hrs using single stranded circular DNA plasmid M13mp18 as substrate by ethidium bromide staining based agarose gel electrophoresis; parameters: species or system Influenza A virus (A/X-31(H3N2))
[2] = system: Influenza A virus; assay: Antiviral activity against influenza A virus (A/PR/8/34) infected in HEK293 cells after 24 hrs by firefly luciferase reporter gene based vRNP-reconstitution assay; assay type: functional, cell-based; conditions: A/Puerto Rico/8/1934(H1N1), HEK293, 24 h
[3] = Cytotoxicity against HEK293 cells assessed as reduction in cell viability by MTS assay; assay type: cell-based; conditions: human
[4] = system: Influenza A virus; assay: Antiviral activity against influenza A virus H1N1 infected in MDCK cells assessed as reduction of virus-induced cytopathic effect after 48 hrs by CellTiter-Glo luminescent assay; assay type: functional, cell-based
[5] = system: Influenza A virus (H1N1); assay: Antiviral activity against influenza A virus H1N1-pdm09 infected in MDCK cells assessed as reduction of virus-induced cytopathic effect after 48 hrs by CellTiter-Glo luminescent assay; assay type: functional, cell-based
[6] = system: Influenza A virus H3N2; assay: Antiviral activity against influenza A virus H3N2 infected in MDCK cells assessed as reduction of virus-induced cytopathic effect after 48 hrs by CellTiter-Glo luminescent assay; assay type: functional, cell-based
[7] = system: H5N1 subtype; assay: Antiviral activity against influenza A virus H5N1 infected in MDCK cells assessed as reduction of virus-induced cytopathic effect after 48 hrs by CellTiter-Glo luminescent assay; assay type: functional, cell-based
[8] = Antiviral activity against influenza A virus H7N9 infected in MDCK cells assessed as reduction of virus-induced cytopathic effect after 48 hrs by CellTiter-Glo luminescent assay; assay type: functional, cell-based, H7N9 subtype
[9] = Antiviral activity against influenza A virus H9N2 infected in MDCK cells assessed as reduction of virus-induced cytopathic effect after 48 hrs by CellTiter-Glo luminescent assay; assay type: functional, cell-based, H9N2 subtype
[10] = system: Influenza B virus; assay: Antiviral activity against influenza B virus infected in MDCK cells assessed as reduction of virus-induced cytopathic effect after 48 hrs by CellTiter-Glo luminescent assay; assay type: functional, cell-based
[11] = Cytotoxicity against MDCK cells assessed as reduction in cell viability after 48 hrs in serum free conditions by CellTiter-Glo luminescent assay; assay type: cell-based, Canis lupus familiaris; conditions: dog
[12] = Cytotoxicity against MDCK cells assessed as reduction in cell viability after 48 hrs in presence of 5 % serum by CellTiter-Glo luminescent assay; assay type: cell-based, Canis lupus familiaris; conditions: dog
[13] = Inhibition of recombinant influenza A virus A/X-31 N-terminal PA endonuclease (1 to 217 residues) after 2 hrs using single stranded circular DNA plasmid M13mp18 as substrate by ethidium bromide staining based agarose gel electrophoresis; parameters: species or system Influenza A virus (A/X-31(H3N2))
[14] = system: Influenza A virus; assay: Antiviral activity against influenza A virus ((A/PR/8/34) infected in MDCK cells assessed as reduction in viral yield after 24 hrs by qRT-PCR assay; assay type: functional; conditions: A/Puerto Rico/8/1934(H1N1)
[15] = Cytotoxicity against MDCK cells assessed as reduction in cell viability after 24 hrs by MTS assay; assay type: cell-based, Canis lupus familiaris; conditions: dog
[16] = Cytotoxicity against HEK293 cells assessed as reduction in cell viability after 24 hrs by MTS assay; assay type: cell-based; conditions: human
[17] = system: Influenza A virus; assay: Antiviral activity against influenza A virus infected in HEK293 cells after 24 hrs by firefly luciferase reporter gene based vRNP-reconstitution assay; assay type: functional, cell-based; conditions: HEK293, 24 h
[18] = Antiviral activity against influenza A virus (A/WSN/33 (H1N1)) infected in MDCK cells after 48 hrs by crystal violet staining based plaque reduction assay; assay type: functional, cell-based, Influenza A virus (A/WSN/1933(H1N1))
[19] = Cytotoxicity against MDCK cells assessed as reduction in cell viability after 48 hrs by WST-1 assay; assay type: cell-based, Canis lupus familiaris; conditions: dog
[20] = system: Influenza A virus; assay: Antiviral activity against influenza A virus (A/PR/8/34) infected in MDCK cells assessed as reduction in viral yield incubated for 30 mins prior to infection measured after 24 hrs by plaque reduction assay; assay type: functional, cell-based; conditions: A/Puerto Rico/8/1934(H1N1)
[21] = Binding affinity to influenza A virus PA endonuclease by isothermal titration calorimetry
[22] = Antiviral activity against influenza A virus (A/HK/415742/09(H1N1)) infected in MDCK cells by plaque reduction assay; assay type: functional, cell-based, Influenza A virus (A/Hong Kong/415742/2009(H1N1))
[23] = Cytotoxicity against MDCK cells by MTT assay; assay type: cell-based, Canis lupus familiaris; conditions: dog
[24] = Antiviral activity against influenza A virus (A/Chile/1/83) infected in MDCK cells after 2 to 3 days by crystal violet staining based plaque reduction assay; assay type: functional, cell-based, Influenza A virus (A/Chile/1/1983(H1N1))
[25] = Antiviral activity against influenza A virus (A/Sydney/5/97) infected in MDCK cells after 2 to 3 days by crystal violet staining based plaque reduction assay; assay type: functional, cell-based, Influenza A virus (A/Sydney/5/1997(H3N2))
[26] = system: Influenza B virus; assay: Antiviral activity against influenza B virus (B/Yamagata/16/88) infected in MDCK cells after 2 to 3 days by crystal violet staining based plaque reduction assay; assay type: functional, cell-based; conditions: B/Yamagata/16/1988, MDCK
[27] = Cytotoxicity against MDCK cells after 48 hrs by MTT assay; assay type: cell-based, Canis lupus familiaris; conditions: dog
[28] = system: Influenza A virus; assay: Antiviral activity against influenza A virus; assay type: functional
[29] = target: Polymerase acidic protein (Influenza A virus (A/Puerto Rico/8/1934(H1N1)), UniProt P03433); assay: Inhibition of influenza A virus (A/PR/8/34) N-terminal PA endonuclease using 880 nucleotide ALMV cap1 primer RNA as substrate
[30] = Inhibition of recombinant influenza A virus A/X-31 N-terminal 6His tagged-PA endonuclease (1 to 217 residues) expressed in Escherichia coli BL21-CodonPlus cells after 1 hr using single stranded circular DNA plasmid M13mp18 as substrate by ethidium bromide staining based agarose gel electrophoresis; parameters: species or system Influenza A virus (A/X-31(H3N2))
[31] = Inhibition of influenza A virus N-terminal PA endonuclease

For `NC(=O)N/N=C/c1cccc(O)c1O`, the pIC50 [1] was 4.62, the pEC50 [2] was 3.97 and the CC50 [3] was greater than 200 µM.
`C[C@@H](N1CN([C@H]2c3ccccc3CSc3ccccc32)n2ccc(=O)c(O)c2C1=O)C(F)(F)F` showed a pEC50 [4] of 8.08, a pEC50 [5] of 8.15 and a pEC50 [6] of 8.07. It also gave a pEC50 [7] of 7.86, a pEC50 [8] of 7.81 and a pEC50 [9] of 7.91. It also gave a pEC50 [10] of 7.89, a CC50 at 48 h [11] of 11.9 µM and a CC50 at 48 h [12] of 86.2 µM.
`O=C(N/N=C/c1cc(O)c(O)c(O)c1)c1cc(O)c(O)c(O)c1` gave a pIC50 [13] of 5.06, an EC90 [14] of 3.5 µM and a CC50 at 24 h [15] greater than 200 µM. It also gave a CC50 at 24 h [16] greater than 200 µM and a pEC50 [17] of 5.51.
In the case of `OC(CN1CCCCC1)Cn1c2c(c3ccccc31)CCCC2` (stereo unspecified), the pEC50 [18] was 4.44 and the CC50 at 48 h [19] was greater than 200 µM.
Work on `O=C(O)/C(O)=C/C(=O)C1(Cc2ccc(Cl)cc2)CCN(CC2CCCCC2)CC1` yielded a pEC50 [20] of 6.15 to 6.74.
For `O=C(O)/C(O)=C/C(=O)C1(Cc2ccc(Cl)cc2)CCCN(Cc2ccccc2)C1` (stereo unspecified), the pEC50 [20] was 6.15 to 6.74.
In the case of `O=C1Nc2ccccc2/C1=N\N=C1/C/C(=C2\C(=O)Nc3ccccc32)C(=O)N1`, the pKd [21] was 5.96, the pEC50 [22] was 6.10 and the CC50 [23] was greater than 400 µM.
`O=C(O)/C(O)=C/C(=O)C1(Cc2ccc(Cl)cc2)CCN(Cc2ccc(Cl)cc2)CC1` showed a pEC50 [20] of 6.15 to 6.74.
For `CN(C)c1ccc(/C=C2\C/C(=N\N=C3\C(=O)Nc4ccccc43)NC2=O)cc1`, the pKd [21] was 5.89, the pEC50 [22] was 5.82 and the CC50 [23] was greater than 300 µM.
Molecule `O=C(O[C@@H]1Cc2c(O)cc(O)cc2O[C@@H]1c1ccc(O)c(O)c1)c1cc(O)c(O)c(O)c1` [EPICATECHIN GALLATE] has a pEC50 [24] of 4.58, a pEC50 [25] of 4.65 and a pEC50 [26] of 4.39. The CC50 at 48 h [27] was 526 µM.
`O=C(O[C@@H]1Cc2c(O)cc(O)cc2O[C@@H]1c1cc(O)c(O)c(O)c1)c1cc(O)c(O)c(O)c1` [EPIGALOCATECHIN GALLATE] gave a pEC50 [24] of 4.55, a pEC50 [25] of 4.64 and a pEC50 [26] of 4.58. It also gave a CC50 at 48 h [27] of 275 µM.
Work on `O=C(O)/C(O)=C/C(=O)C1(Cc2ccc(Cl)cc2)CCCN(S(=O)(=O)Cc2ccccc2)C1` (stereo unspecified) yielded a pEC50 [20] of 6.15 to 6.74.
Molecule `Cn1cnc(-c2nc(C(=O)O)c(O)c(=O)[nH]2)c1` has a pEC50 [28] of less than 4.30.
For `CC(C)/C=C1\N=C(CC(C)C)C(=O)N(O)C1=O`, the pIC50 [29] was 5.26 to 5.29.
Work on `NC(=S)N/N=C/c1cccc(O)c1O` yielded a pIC50 [1] of 4.43, a pEC50 [2] of 4.20 and a CC50 [3] greater than 200 µM.
`CC(=O)Nc1cccc(-c2nc(C(=O)O)c(O)c(=O)[nH]2)c1` showed a pEC50 [28] of less than 4.30.
Work on `O=C(NCc1ccc(F)cc1)c1cccc(O)c1O` yielded a pIC50 [30] of 4.48.
Work on `O=C(O)/C(O)=C/C(=O)c1cccn1Cc1ccc(F)cc1` yielded a pIC50 [1] of 6.10.
In the case of `O=c1[nH]cc(Br)cc1O`, the pIC50 [31] was 4.80.
